Laboratory results: patent EP0318056A2, “Novel antibiotics and process for preparing the same” (MEIJI SEIKA KAISHA LTD., priority 1987, dated 1989)
Converted amounts (≈) assume the structure as drawn.

Tests used:
HL-60 = experiment: Cytotoxicity on tumor cells; type: cell-based; conditions: HL-60, human leukemia; 37°C, 72 hours, 5% CO₂; probit method; read-out: IC₅₀
PC14 = experiment: Cytotoxicity on tumor cells; type: cell-based; conditions: PC-14; PC14, human lung cancer; 37°C, 72 hours, 5% CO₂; probit method; read-out: IC₅₀
P-388 = experiment: Cytotoxicity on tumor cells; type: cell-based; conditions: P388; P-388, mouse leukemia; 37°C, 72 hours, 5% CO₂; probit method; read-out: IC₅₀
L-1210 = experiment: Cytotoxicity on tumor cells; type: cell-based; conditions: L1210; L-1210, mouse leukemia; 37°C, 72 hours, 5% CO₂; probit method; read-out: IC₅₀
HMV-1 = experiment: Cytotoxicity on tumor cells; type: cell-based; conditions: HMV-1, human melanoma; 37°C, 72 hours, 5% CO₂; probit method; read-out: IC₅₀
K562 = experiment: Cytotoxicity on tumor cells; type: cell-based; conditions: K562, human leukaemia; 37°C, 72 hours, 5% CO₂; probit method; read-out: IC₅₀
KB = experiment: Cytotoxicity on tumor cells; type: cell-based; conditions: human nasopharynx, 37°C, 72 hours, 5% CO₂, probit method, read-out: IC₅₀
[1] = mice, dose of 200 mg/kg (i.p.)
PC13 = experiment: Cytotoxicity on tumor cells; type: cell-based; conditions: PC-13; PC13, human lung cancer; 37°C, 72 hours, 5% CO₂; probit method; read-out: IC₅₀
B16 = experiment: Cytotoxicity on tumor cells; type: cell-based; conditions: B16, mouse melanoma; 37°C, 72 hours, 5% CO₂; probit method; read-out: IC₅₀
PC10 = experiment: Cytotoxicity on tumor cells; type: cell-based; conditions: PC10, human lung cancer; 37°C, 72 hours, 5% CO₂; probit method; read-out: IC₅₀
Meth-A = experiment: Cytotoxicity on tumor cells; type: cell-based; conditions: mouse fibrosarcoma, 37°C, 72 hours, 5% CO₂, probit method, read-out: IC₅₀
in vivo = conditions: mouse, ip
[2] = qualitative, in the named solvents
[3] = tested on: Salmonella enteritidis No. 11; experiment: Antimicrobial activity, serial dilution method on agar plate; type: cell-based; conditions: Salmonella enterica, read-out: Minimum Inhibitory Concn.
Description: (§1) The antimicrobial activity of SF2582 A and B on various test microorganisms shown in Table 2 below were determined by the serial dilution method on agar plate, and the minimum inhibitory concentrations (µg/ml) obtained are shown in Table 2 below.

[4] = tested on: Staphylococcus aureus 209P JC-1; experiment: as above; type: cell-based; conditions: read-out: Minimum Inhibitory Concn.
Description: as §1

[5] = tested on: Citrobacter freundii GN 346; experiment: as above; type: cell-based; conditions: GN346, read-out: Minimum Inhibitory Concn.
Description: as §1

Morganella morganii Kono = experiment: as above; type: cell-based; conditions: read-out: Minimum Inhibitory Concn.
Description: as §1

[6] = tested on: Staphylococcus epidermidis 109; experiment: as above; type: cell-based; conditions: read-out: Minimum Inhibitory Concn.
Description: as §1

[7] = tested on: Klebsiella pneumoniae PCI 602; experiment: as above; type: cell-based; conditions: PCI602, read-out: Minimum Inhibitory Concn.
Description: as §1

[8] = tested on: Providencia rettgeri J-0026; experiment: as above; type: cell-based; conditions: J0026, read-out: Minimum Inhibitory Concn.
Description: as §1

[9] = tested on: Staphylococcus epidermidis ATCC 14990; experiment: as above; type: cell-based; conditions: ATCC14990, read-out: Minimum Inhibitory Concn.
Description: as §1

[10] = tested on: Pseudomonas aeruginosa MB-3829; experiment: as above; type: cell-based; conditions: MB3829, read-out: Minimum Inhibitory Concn.
Description: as §1

Salmonella typhi O-901-W = experiment: as above; type: cell-based; conditions: Salmonella enterica, read-out: Minimum Inhibitory Concn.
Description: as §1

[11] = tested on: Klebsiella pneumoniae 22 #3038; experiment: as above; type: cell-based; conditions: read-out: Minimum Inhibitory Concn.
Description: as §1

Salmonella sp. D-0001 = experiment: as above; type: cell-based; conditions: SP.D0001, read-out: Minimum Inhibitory Concn.
Description: as §1

[12] = tested on: Salmonella typhimurium LT-2; experiment: as above; type: cell-based; conditions: Salmonella enterica, read-out: Minimum Inhibitory Concn.
Description: as §1

Escherichia coli No. 29 = experiment: as above; type: cell-based; conditions: read-out: Minimum Inhibitory Concn.
Description: as §1

[13] = tested on: Staphylococcus aureus Smith S-424; experiment: as above; type: cell-based; conditions: SMITHS424, read-out: Minimum Inhibitory Concn.
Description: as §1

[14] = tested on: Shigella sonnei EW 33 Type 1; experiment: as above; type: cell-based; conditions: EW33TYPE1, read-out: Minimum Inhibitory Concn.
Description: as §1

[15] = tested on: Staphylococcus aureus No. 26; experiment: as above; type: cell-based; conditions: read-out: Minimum Inhibitory Concn.
Description: as §1

Proteus vulgaris OX 19 = experiment: as above; type: cell-based; conditions: OX19, read-out: Minimum Inhibitory Concn.
Description: as §1

[16] = tested on: Escherichia coli W 3630 RGN 823; experiment: as above; type: cell-based; conditions: W3630RGN823, read-out: Minimum Inhibitory Concn.
Description: as §1

Proteus mirabilis GN 310 = experiment: as above; type: cell-based; conditions: GN310, read-out: Minimum Inhibitory Concn.
Description: as §1

[17] = tested on: Enterococcus faecalis ATCC 8043; experiment: as above; type: cell-based; conditions: ATCC8043, read-out: Minimum Inhibitory Concn.
Description: as §1

[18] = tested on: Escherichia coli JR 661 W/677; experiment: as above; type: cell-based; conditions: JR661W/677, read-out: Minimum Inhibitory Concn.
Description: as §1

[19] = tested on: Manthomonas maltophilia M-0627; experiment: as above; type: cell-based; conditions: read-out: Minimum Inhibitory Concn.
Description: as §1

Escherichia coli JC-2 = experiment: as above; type: cell-based; conditions: JC2, read-out: Minimum Inhibitory Concn.
Description: as §1

[20] = tested on: Serratia marcescens MB-3848; experiment: as above; type: cell-based; conditions: MB3848, read-out: Minimum Inhibitory Concn.
Description: as §1

[21] = tested on: Bacillus anthracis No. 119; experiment: microbe, parasite or virus in culture; type: cell-based; conditions: NO.119, read-out: Minimum Inhibitory Concn.
P-388 tumor cells = experiment: Antitumor activity in mice intraperitoneally implanted with P-388 tumor cells; type: in vivo; conditions: P-388 mice

| SMILES | LD50 at 336 h (in vivo) [mg/kg] | Solubility [2] | MIC [3] [µg/mL] | MIC [4] [µg/mL] | MIC [5] [µg/mL] | MIC (Morganella morganii Kono) [µg/mL] | MIC [6] [µg/mL] | MIC [7] [µg/mL] | MIC [8] [µg/mL] | MIC [9] [µg/mL] | MIC [10] [µg/mL] | MIC (Salmonella typhi O-901-W) [µg/mL] | MIC [11] [µg/mL] | MIC (Salmonella sp. D-0001) [µg/mL] | MIC [12] [µg/mL] | MIC (Escherichia coli No. 29) [µg/mL] | MIC [13] [µg/mL] | MIC [14] [µg/mL] | MIC [15] [µg/mL] | MIC (Proteus vulgaris OX 19) [µg/mL] | further results |
| --- | --- | --- | --- | --- | --- | --- | --- | --- | --- | --- | --- | --- | --- | --- | --- | --- | --- | --- | --- | --- | --- |
| COC(=O)C1(C)Nc2c(O)cc3c(c2C1=O)C(CO)CN3C(=O)c1cc2cc(OC)c(OC)c(OC)c2[nH]1 (stereo not shown) |  |  |  |  |  |  |  |  |  |  |  |  |  |  |  |  |  |  |  |  | IC50 (HL-60): 31.5 µg/mL (≈ 59.9 µM); IC50 (PC14): > 50 µg/mL; IC50 (P-388): 9.4 µg/mL (≈ 17.9 µM); IC50 (L-1210): 1.3 µg/mL (≈ 2.47 µM); IC50 (HMV-1): 12.1 µg/mL (≈ 23 µM); IC50 (K562): 35.6 µg/mL (≈ 67.7 µM); IC50 (KB): 18 µg/mL (≈ 34.3 µM); death in acute toxicity test [1]: no case of death; IC50 (PC13): 39.5 µg/mL (≈ 75.2 µM); IC50 (B16): 5.1 µg/mL (≈ 9.7 µM); IC50 (PC10): 14.1 µg/mL (≈ 26.8 µM); IC50 (Meth-A): 42 µg/mL (≈ 79.9 µM) |
| COC(=O)C1(C)Nc2c(O)cc3c(c2C1=O)C(CCl)CN3C(=O)c1cc2cc(OC)c(OC)c(OC)c2[nH]1 (stereo not shown) [SF2582 A] | 0.25 to 1 | soluble in methanol, ethyl acetate, acetone, chloroform, or dimethyl sufoxide; insoluble in water or haxane | 0.78 (≈ 1.43 µM) | < 0.025 | 3.13 (≈ 5.75 µM) | 50 (≈ 91.9 µM) | < 0.025 | 25 (≈ 46 µM) | 25 (≈ 46 µM) | 0.05 (≈ 0.0919 µM) | 25 (≈ 46 µM) | 3.13 (≈ 5.75 µM) | 25 (≈ 46 µM) | 12.5 (≈ 23 µM) | 12.5 (≈ 23 µM) | 6.25 (≈ 11.5 µM) | < 0.025 | 3.13 (≈ 5.75 µM) | < 0.025 | > 100 | MIC [16]: 6.25 µg/mL (≈ 11.5 µM); MIC (Proteus mirabilis GN 310): 25 µg/mL (≈ 46 µM); MIC [17]: 0.05 µg/mL (≈ 0.0919 µM); MIC [18]: 12.5 µg/mL (≈ 23 µM); MIC [19]: 100 µg/mL (≈ 184 µM); MIC (Escherichia coli JC-2): 12.5 µg/mL (≈ 23 µM); MIC [20]: 25 µg/mL (≈ 46 µM); MIC [21]: 0.05 µg/mL (≈ 0.0919 µM); T/C (effect of improving incidence of survival) (P-388 tumor cells; dose 0.033 mg/kg intraperitoneally, once a day for consecutive 2 days): 114%; T/C (effect of improving incidence of survival) (P-388 tumor cells; dose 0.13 mg/kg intraperitoneally, once a day for consecutive 2 days): 148%; T/C (effect of improving incidence of survival) (P-388 tumor cells; dose 0.54 mg/kg intraperitoneally, once a day for consecutive 2 days): 128%; T/C (effect of improving incidence of survival) (P-388 tumor cells; dose 2.14 mg/kg intraperitoneally, once a day for consecutive 2 days): 80% |
| COC(=O)C1(C)Nc2c(O)cc3c(c2C1=O)CC(Cl)CN3C(=O)c1cc2cc(OC)c(OC)c(OC)c2[nH]1 (stereo not shown) [SF2582 B] | 1 to 2 | soluble in methanol, ethyl acetate, acetone, chloroform, or dimethyl sufoxide; insoluble in water or haxane | 1.56 (≈ 2.87 µM) | 0.05 (≈ 0.0919 µM) | 6.25 (≈ 11.5 µM) | 50 (≈ 91.9 µM) | 0.05 (≈ 0.0919 µM) | 50 (≈ 91.9 µM) | 25 (≈ 46 µM) | 0.05 (≈ 0.0919 µM) | 50 (≈ 91.9 µM) | 3.13 (≈ 5.75 µM) | > 100 | 25 (≈ 46 µM) | 25 (≈ 46 µM) | 12.5 (≈ 23 µM) | < 0.025 | 6.25 (≈ 11.5 µM) | < 0.025 | 50 (≈ 91.9 µM) | MIC [16]: 12.5 µg/mL (≈ 23 µM); MIC (Proteus mirabilis GN 310): 25 µg/mL (≈ 46 µM); MIC [17]: 0.1 µg/mL (≈ 0.184 µM); MIC [18]: 25 µg/mL (≈ 46 µM); MIC [19]: 100 µg/mL (≈ 184 µM); MIC (Escherichia coli JC-2): 25 µg/mL (≈ 46 µM); MIC [20]: 25 µg/mL (≈ 46 µM); MIC [21]: 0.05 µg/mL (≈ 0.0919 µM); T/C (effect of improving incidence of survival) (P-388 tumor cells; dose 0.16 mg/kg intraperitoneally, only once): 117%; T/C (effect of improving incidence of survival) (P-388 tumor cells; dose 0.63 mg/kg intraperitoneally, only once): 159%; T/C (effect of improving incidence of survival) (P-388 tumor cells; dose 2.5 mg/kg intraperitoneally, only once): 159%; T/C (effect of improving incidence of survival) (P-388 tumor cells; dose 10.0 mg/kg intraperitoneally, only once): 80% |
